Converted amounts (≈) assume the structure as drawn.

The source of these data is ChEMBL document CHEMBL3585308, “Discovery and Modification of in Vivo Active Nrf2 Activators with 1,2,4-Oxadiazole Core: Hits Identification and Structure-Activity Relationship Study” (J Med Chem, 2015).

The target in data set [1] is T1, Nuclear factor erythroid 2-related factor 2 (Homo sapiens) (UniProt Q16236).
T1 sequence (whole entry): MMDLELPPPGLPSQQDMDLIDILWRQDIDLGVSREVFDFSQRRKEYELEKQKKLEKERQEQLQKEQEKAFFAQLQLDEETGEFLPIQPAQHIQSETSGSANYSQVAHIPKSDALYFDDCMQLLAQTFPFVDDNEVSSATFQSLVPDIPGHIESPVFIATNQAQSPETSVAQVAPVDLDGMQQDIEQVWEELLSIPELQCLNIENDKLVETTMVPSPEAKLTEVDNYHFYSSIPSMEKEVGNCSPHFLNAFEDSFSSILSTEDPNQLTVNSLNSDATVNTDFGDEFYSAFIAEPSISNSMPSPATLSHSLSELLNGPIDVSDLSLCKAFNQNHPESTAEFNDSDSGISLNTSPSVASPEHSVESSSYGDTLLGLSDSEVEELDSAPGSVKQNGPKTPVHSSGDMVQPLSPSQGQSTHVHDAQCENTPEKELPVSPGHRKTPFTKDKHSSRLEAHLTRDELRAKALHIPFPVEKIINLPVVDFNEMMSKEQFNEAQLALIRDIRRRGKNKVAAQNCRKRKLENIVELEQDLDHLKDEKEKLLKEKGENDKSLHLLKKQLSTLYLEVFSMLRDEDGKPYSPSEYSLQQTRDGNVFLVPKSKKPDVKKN
Nature of the data set: Activation of Nrf2 in human HepG2-ARE-C8 cells assessed as upregulation of ARE level at 160 uM after 12 hrs by luciferase reporter gene assay relative to control. The data set is classed as cell-based. (In general: In a reporter assay the amount or activity of a reporter protein is the signal.)

The nature of data set [2]: Lipophilicity, log D of the compound at pH 7.4 by potentiometric titration method. In kind it is physicochemical. Particulars: buffer.
Data set [3] deals with T1, Nuclear factor erythroid 2-related factor 2 (Homo sapiens). Briefly: Activation of Nrf2 in human HepG2-ARE-C8 cells assessed as upregulation of ARE level at 0.02 uM after 12 hrs by luciferase reporter gene assay relative to control. In kind it is cell-based.
Data set [4] is described as follows: Permeability of the compound at pH 7.4 by PAMPA. In kind it is physicochemical. To be noted: read-out: permeability. (The PAMPA barrier holds no transporters, so it reflects passive diffusion.)
Data set [5] can be described thus: Dissociation constant, pKa of the compound by potentiometric titration method. The data set is classed as physicochemical.
Data set [6] is described as follows: Intrinsic aqueous solubility of the compound by potentiometric titration method. In kind it is physicochemical. To be noted: read-out: Intrinsic_solubility.
In data set [7] the target is T1, Nuclear factor erythroid 2-related factor 2 (Homo sapiens). Nature of the data set: Activation of Nrf2 in human HepG2-ARE-C8 cells assessed as upregulation of ARE level at 40 uM after 12 hrs by luciferase reporter gene assay relative to control. The data set is classed as cell-based.
For data set [8] the target is unchanged. Briefly: Activation of Nrf2 in human HepG2-ARE-C8 cells assessed as upregulation of ARE level at 20 uM after 12 hrs by luciferase reporter gene assay relative to control. The data set is classed as cell-based.
The target is the same in data set [9]. Briefly: Activation of Nrf2 in human HepG2-ARE-C8 cells assessed as upregulation of ARE level at 0.2 uM after 12 hrs by luciferase reporter gene assay relative to control. The data set is classed as cell-based.
Data set [10] has the same target. Briefly: Activation of Nrf2 in human HepG2-ARE-C8 cells assessed as upregulation of ARE level at 80 uM after 12 hrs by luciferase reporter gene assay relative to control. In kind it is cell-based.
Data set [11] has the same target. Nature of the data set: Activation of Nrf2 in human HepG2-ARE-C8 cells assessed as upregulation of ARE level at 2 uM after 12 hrs by luciferase reporter gene assay relative to control. The data set is classed as cell-based.
Data set [12] concerns HCT-116. Nature of the data set: Cytotoxicity against human HCT116 cells assessed as reduction of cell proliferation at 80 uM after 24 hrs by MTT assay. In kind it is cell-based. Particulars: hct-116, 24 h. Background: Formazan colour is commonly taken as a measure of viable cells.

For the molecule `Clc1ccc(-c2nc(-c3ccc4nc[nH]c4c3)no2)cc1`, the fold change (FC) in [1] amounted to 14.2; in data set [3], 2.03; in data set [7], 18.5; in data set [8], 15.5; in data set [9], 2.79; in data set [10] it was 14.1. Moreover, in data set [11], the fold change (FC) was determined as 7.25. Also, in [2], the logD was 3.71. In addition, the Papp in [4] was 10.3 ×10⁻⁶ cm/s. Besides, the pKa in [5] turned out to be 3.77. The solubility in data set [6] worked out at 49.5 µM (≈ 14.7 µg/mL). The Activity result in [12] is listed as “Non-toxic”.

`c1ccc(-c2nc(-c3ccc4nc[nH]c4c3)no2)cc1`: the fold change (FC) turned out to be 4.46 in data set [1]; 1.49 in data set [3]; 23.7 in [7]; 21.4 in [8]; 4.72 in [9]; 3.19 in data set [10]. Besides, the fold change (FC) in data set [11] was found to be 14.2. Besides, in data set [2], the logD is 3.66. Besides, the Papp in [4] was 5.26 ×10⁻⁶ cm/s. In data set [5], the pKa was determined as 3.69. The solubility in data set [6] was 12.3 µM (≈ 3.23 µg/mL). Further, in data set [12], the Activity result is “Non-toxic”.

For `O=[N+]([O-])c1cccc(-c2nc(-c3ccc4nc[nH]c4c3)no2)c1`, the fold change (FC) in data set [1] came out at 11.5; in data set [3] it was 1.43; in data set [7], 21.8; in data set [8], 11.6; in data set [9], 1.56; in data set [10], 16.5. Besides, the fold change (FC) in data set [11] stood at 4.74. For the same molecule, the Activity result in [12] is listed as “Non-toxic”.

For the molecule `Brc1ccc(-c2nc(-c3ccc4nc[nH]c4c3)no2)cc1`, the fold change (FC) in [1] came out at 2.49; in data set [3] it was 1.31; in data set [7] it was 3.44; in data set [8], 13.4; in data set [9], 2.36; in [10], 2.75. Besides, the fold change (FC) in data set [11] turned out to be 12.7. In data set [2], this molecule gave a logD of 3.54. Further, the Papp in [4] amounted to 11.2 ×10⁻⁶ cm/s. Also, in [5], the pKa worked out at 3.25. Moreover, in data set [6], the solubility was 35.4 µM (≈ 12.1 µg/mL). For the same molecule, the Activity result in data set [12] is “Non-toxic”.

Regarding `Cc1ccccc1-c1nc(-c2ccc3nc[nH]c3c2)no1`, the fold change (FC) in data set [1] is 7.85; in data set [3], 1.4; in data set [7] it was 10.8; in data set [8] it was 10.9; in data set [9], 1.59; in data set [10], 18.5. The fold change (FC) in data set [11] was found to be 3.52. Besides, the Activity result in [12] was “Non-toxic”.

For the molecule `c1ccc2cc(-c3nc(-c4ccc5nc[nH]c5c4)no3)ccc2c1`, the fold change (FC) is 16.2 in [1]; 1.42 in data set [3]; 7.57 in data set [7]; 6.72 in [8]; 1.23 in [9]; 13.4 in data set [10]. Besides, in data set [11], the fold change (FC) amounted to 3.47. This molecule returned a logD in data set [2] of 5.56. In addition, in data set [4], the Papp was found to be 8.64 ×10⁻⁶ cm/s. For the same molecule, in [5], the pKa worked out at 4.22. For the same molecule, in data set [6], the solubility was 2.5 µM (≈ 0.781 µg/mL). For the same molecule, the Activity result in data set [12] is “Non-toxic”.

In the case of `FC(F)(F)c1ccc(-c2nc(-c3ccc4nc[nH]c4c3)no2)cc1`, the fold change (FC) in data set [1] was 1.13; in data set [3], 1.35; in data set [7], 21.6; in data set [8], 17.7; in [9], 2.85; in data set [10], 6.56. Further, in data set [11], the fold change (FC) came to 6.91. In [12], the Activity entry is “Non-toxic”.

`c1ccc(-c2nc(-c3ccc4nc[nH]c4c3)no2)nc1`: the fold change (FC) in data set [1] turned out to be 2.55; in [3], 1.06; in data set [7], 7.51; in [8] it was 9.49; in data set [9], 3.42; in data set [10], 2.65. The fold change (FC) in data set [11] is 5.09. In addition, the Activity result in [12] was “Non-toxic”.

For the molecule `Oc1cccc(-c2nc(-c3ccc4nc[nH]c4c3)no2)c1`, the fold change (FC) came to 3.93 in data set [1]; 1.68 in data set [3]; 4.18 in [7]; 8.62 in data set [8]; 1.71 in data set [9]; 4.05 in data set [10]. Besides, the fold change (FC) in data set [11] worked out at 2.44. The Activity entry in data set [12] is “Non-toxic”.

Turning to `CC(C)NCC(O)COc1cccc2ccccc12` (stereo not drawn) [PROPRANOLOL], in data set [4], the Papp is 117 ×10⁻⁶ cm/s.

In the case of `CC(C(=O)O)c1cccc(C(=O)c2ccccc2)c1` (stereo not drawn) [KETOPROFEN], the Papp in [4] is 1.93 ×10⁻⁶ cm/s.

Take `c1ccc2nc(-c3nc(-c4ccc5nc[nH]c5c4)no3)ccc2c1`: the fold change (FC) in [1] came to 7.09; in [3], 1.61; in [7] it was 16.9; in [8] it was 20.5; in data set [9], 2.04; in data set [10], 6.61. Further, the fold change (FC) in data set [11] came out at 4.35. Also, the Activity result in [12] is reported as “Non-toxic”.

Turning to `FC(F)(F)c1ccccc1-c1nc(-c2ccc3nc[nH]c3c2)no1`, the fold change (FC) in data set [1] is 3.73; in [3], 1.23; in data set [7], 24.2; in [8], 19.1; in [9], 2.28; in data set [10] it was 17.9. The fold change (FC) in data set [11] came to 9.01. The molecule further registered a logD in data set [2] of 4.01. Further, in data set [4], the Papp was determined as 4.78 ×10⁻⁶ cm/s. The same molecule had a pKa in data set [5] of 4. Further, in data set [6], the solubility was 14 µM (≈ 4.62 µg/mL). The Activity entry in [12] is listed as “Non-toxic”.

With `CCCCc1ccc(-c2nc(-c3ccc4nc[nH]c4c3)no2)cc1`, the fold change (FC) in data set [1] turned out to be 12; in data set [3], 1.55; in data set [7], 37.6; in [8], 30.8; in data set [9], 2.08; in data set [10], 14.8. For the same molecule, the fold change (FC) in data set [11] came to 10.9. For the same molecule, the Activity entry in [12] was “Non-toxic”.

Regarding `Cn1cnc2ccc(-c3noc(-c4ccc5ccccc5c4)n3)cc21`, the fold change (FC) in data set [1] came to 2.44; in data set [3] it was 1.44; in data set [7], 1.45; in data set [8], 1.39; in [9], 1.4; in data set [10], 1.37. For the same molecule, the fold change (FC) in data set [11] worked out at 1.43. In data set [12], the Activity entry is “Non-toxic”.

With `Oc1ccc(-c2nc(-c3ccc4nc[nH]c4c3)no2)cc1`, the fold change (FC) is 7.35 in data set [1]; 1.56 in data set [3]; 8.67 in [7]; 6.23 in [8]; 1.65 in data set [9]; 8.81 in data set [10]. Moreover, the fold change (FC) in [11] amounted to 2.19. Further, the Activity result in [12] is “Non-toxic”.

Take `CCCc1ccc(-c2nc(-c3ccc4nc[nH]c4c3)no2)cc1`: the fold change (FC) came to 10 in data set [1]; 1.48 in data set [3]; 6.16 in data set [7]; 6.07 in data set [8]; 1.73 in data set [9]; 7.79 in data set [10]. Further, the fold change (FC) in [11] worked out at 2.25. Moreover, in [12], the Activity entry is “Non-toxic”.

On to `c1cc(-c2nc(-c3ccc4nc[nH]c4c3)no2)ccn1`, for which the fold change (FC) in data set [1] turned out to be 10.6; in data set [3], 1.91; in [7], 4.95; in data set [8], 4.36; in [9] it was 2.54; in [10], 5.99. Besides, the fold change (FC) in data set [11] is 4.27. Besides, in data set [12], the Activity entry is given as “Non-toxic”.

Regarding `CCc1ccc(-c2nc(-c3ccc4nc[nH]c4c3)no2)cc1`, the fold change (FC) was determined as 3.69 in data set [1]; 1.37 in data set [3]; 5.88 in data set [7]; 9.34 in [8]; 1.75 in data set [9]; 4.82 in data set [10]. The fold change (FC) in data set [11] was 2.56. Also, in data set [12], the Activity result was “Non-toxic”.

Usually logD stands for the decadic logarithm of the distribution of all forms, ionised or not, between an organic phase and buffer at a given pH. Lower therefore signals lower lipophilicity. A word on the pKa: it is the negative logarithm of the acid dissociation constant. Read a high pKa as a weaker acid or stronger base.
